# Measured values as given in patent publication US9314030B2, “Particulate wood preservative and method for producing same” (Koppers Performance Chemicals Inc., priority 2004, dated 2016).
# Where two headings read alike, the source gives them in different places.
# Columns and labels:
# [1] = treated wood; cited from earlier work
# [2] = Wet milling of chlorothalonil with 0.5-0.6 mm cerium-doped zirconium oxide beads, particle size; format: physicochemical
# Description: The laboratory-sized vertical mill was provided by CB Mills, model# L-3-J. The mill has a 2 liter capacity and is jacketed for cooling. Unless otherwise specified, ambient water was cycled through the mill cooling jacket during operation. The internal dimensions are 3.9″ diameter by 9.1″ height. The mill uses a standard 3×3″ disk agitator (mild steel) on a stainless steel shaft, and it operates at 2,620 rpm.
# The media used in this Example was 0.4-0.5 mm zirconium silicate beads supplied by CB Mills. All particle size determinations were made with a Sedigraph™ 5100T manufactured by Micromeritics, which uses x-ray detection and bases calculations of size on Stokes' Law.
# The same mill and conditions were used in this experiment as in experiment 1. However, the grinding media was 0.5-0.6 mm cerium-doped zirconium oxide beads obtained from CB Mills. The density of the cerium doped zirconium oxide is ˜6.0 g/cm^3. […] The total batch weight was about 600 g.
# [3] = 0.5-0.6 mm cerium-doped zirconium oxide, milling time 0 min
# [4] = 0.5-0.6 mm cerium-doped zirconium oxide, milling time 90 min
# [5] = 0.5-0.6 mm cerium-doped zirconium oxide, milling time 240 min
# [6] = 0.5 mm zirconia milling media, in 90 minutes
# [7] = 0.5 mm zirconia milling media, in 6 hours
# [8] = 0.4-0.5 mm zirconium silicate, milling time 0 min
# [9] = 0.4-0.5 mm zirconium silicate, milling time 30 min
# [10] = 0.4-0.5 mm zirconium silicate, milling time 60 min
# [11] = 0.4-0.5 mm zirconium silicate, milling time 90 min
# [12] = 0.4-0.5 mm zirconium silicate, milling time 120 min
# [13] = 0.4-0.5 mm zirconium silicate, milling time 150 min
# [14] = 0.4-0.5 mm zirconium silicate, milling time 180 min
# [15] = 0.4-0.5 mm zirconium silicate, milling time 270 min
# [16] = 0.4-0.5 mm zirconium silicate, milling time 450 min
compound,measurement,setting,value
copper citrate,copper in leachate relative to CCA baseline,[1],over fifteen times the baseline concentration
N#Cc1c(Cl)c(Cl)c(Cl)c(C#N)c1Cl [chlorothalonil],Particle Size Data-Volume % With Diamter Greater Than 1 μm,[2]; [3],92 Volume %
same,Particle Size Data-Volume % With Diamter Greater Than 2 μm,[2]; [3],77 Volume %
same,Particle Size Data-Volume % With Diamter Greater Than 5 μm,[2]; [3],30 Volume %
same,Particle Size Data-Volume % With Diamter Greater Than 10 μm,[2]; [3],8 Volume %
same,Particle Size Data-Volume % With Diamter Greater Than 0.4 μm,[2]; [4],22 Volume %
same,Particle Size Data-Volume % With Diamter Greater Than 1 μm,[2]; [4],3 Volume %
same,Particle Size Data-Volume % With Diamter Greater Than 2 μm,[2]; [4],3 Volume %
same,Particle Size Data-Volume % With Diamter Greater Than 5 μm,[2]; [4],3 Volume %
same,Particle Size Data-Volume % With Diamter Greater Than 10 μm,[2]; [4],3 Volume %
same,d50,[2]; [4],0.31 μm
same,Particle Size Data-Volume % With Diamter Greater Than 0.2 μm,[2]; [5],51 Volume %
same,Particle Size Data-Volume % With Diamter Greater Than 0.4 μm,[2]; [5],3 Volume %
same,Particle Size Data-Volume % With Diamter Greater Than 1 μm,[2]; [5],3 Volume %
same,Particle Size Data-Volume % With Diamter Greater Than 2 μm,[2]; [5],2 Volume %
same,Particle Size Data-Volume % With Diamter Greater Than 5 μm,[2]; [5],1 Volume %
same,Particle Size Data-Volume % With Diamter Greater Than 10 μm,[2]; [5],0 Volume %
same,d50,[2]; [5],0.21 μm
same,d50,[2]; [6],less than 1 micron
same,d95,[2]; [6],less than 1 micron
same,d50,[2]; [7],less than 0.3 microns
same,d95,[2]; [7],less than 0.4 microns
same,d90,"0.4-0.5 mm zirconium silicate, at 60 minutes",about 2 microns
same,Particle Size Data-Volume % With Diamter Greater Than 2 μm,[8],95 Volume %
same,Particle Size Data-Volume % With Diamter Greater Than 5 μm,[8],48 Volume %
same,Particle Size Data-Volume % With Diamter Greater Than 10 μm,[8],10 Volume %
same,d50,[8],4.9 μm
same,Particle Size Data-Volume % With Diamter Greater Than 1 μm,[9],68 Volume %
same,Particle Size Data-Volume % With Diamter Greater Than 2 μm,[9],21 Volume %
same,Particle Size Data-Volume % With Diamter Greater Than 5 μm,[9],4 Volume %
same,Particle Size Data-Volume % With Diamter Greater Than 10 μm,[9],0 Volume %
same,d50,[9],1.3 μm
same,Particle Size Data-Volume % With Diamter Greater Than 1 μm,[10],50 Volume %
same,Particle Size Data-Volume % With Diamter Greater Than 2 μm,[10],11 Volume %
same,Particle Size Data-Volume % With Diamter Greater Than 5 μm,[10],2 Volume %
same,Particle Size Data-Volume % With Diamter Greater Than 10 μm,[10],4 Volume %
same,d50,[10],1.0 μm
same,Particle Size Data-Volume % With Diamter Greater Than 1 μm,[11],94 Volume %
same,Particle Size Data-Volume % With Diamter Greater Than 2 μm,[11],22 Volume %
same,Particle Size Data-Volume % With Diamter Greater Than 5 μm,[11],23 Volume %
same,Particle Size Data-Volume % With Diamter Greater Than 10 μm,[11],18 Volume %
same,d50,[11],1.4 μm
same,Particle Size Data-Volume % With Diamter Greater Than 2 μm,[12],4 Volume %
same,Particle Size Data-Volume % With Diamter Greater Than 5 μm,[12],0 Volume %
same,Particle Size Data-Volume % With Diamter Greater Than 10 μm,[12],2 Volume %
same,Particle Size Data-Volume % With Diamter Greater Than 1 μm,[13],58 Volume %
same,Particle Size Data-Volume % With Diamter Greater Than 2 μm,[13],6 Volume %
same,Particle Size Data-Volume % With Diamter Greater Than 5 μm,[13],2 Volume %
same,Particle Size Data-Volume % With Diamter Greater Than 10 μm,[13],0 Volume %
same,Particle Size Data-Volume % With Diamter Greater Than 1 μm,[14],53 Volume %
same,Particle Size Data-Volume % With Diamter Greater Than 2 μm,[14],7 Volume %
same,Particle Size Data-Volume % With Diamter Greater Than 5 μm,[14],2 Volume %
same,Particle Size Data-Volume % With Diamter Greater Than 10 μm,[14],2 Volume %
same,Particle Size Data-Volume % With Diamter Greater Than 1 μm,[15],54 Volume %
same,Particle Size Data-Volume % With Diamter Greater Than 2 μm,[15],8 Volume %
same,Particle Size Data-Volume % With Diamter Greater Than 5 μm,[15],0 Volume %
same,Particle Size Data-Volume % With Diamter Greater Than 10 μm,[15],2 Volume %
same,Particle Size Data-Volume % With Diamter Greater Than 1 μm,[16],56 Volume %
same,Particle Size Data-Volume % With Diamter Greater Than 2 μm,[16],21 Volume %
same,Particle Size Data-Volume % With Diamter Greater Than 5 μm,[16],8 Volume %
same,Particle Size Data-Volume % With Diamter Greater Than 10 μm,[16],12 Volume %
same,d50,"0.4-0.5 mm zirconium silicate, within about one hour",~1 micron
same,starting particle size,before wet milling,3-4 microns
